Source: ChEMBL document CHEMBL5214911, “Chemical update on the potential for serotonin 5-HT6 and 5-HT7 receptor agents in the treatment of Alzheimer's disease” (Bioorg Med Chem Lett, 2021)

Assays:
[1] = target: 5-hydroxytryptamine receptor 7 (Homo sapiens, UniProt P34969); experiment: Binding affinity to 5-HT7R (unknown origin) assessed as inhibition constant
[2] = target: T1, 5-hydroxytryptamine receptor 1A (Homo sapiens, UniProt P08908); experiment: Binding affinity to 5-HT1A (unknown origin) assessed as inhibition constant
T1 sequence (P08908 whole entry): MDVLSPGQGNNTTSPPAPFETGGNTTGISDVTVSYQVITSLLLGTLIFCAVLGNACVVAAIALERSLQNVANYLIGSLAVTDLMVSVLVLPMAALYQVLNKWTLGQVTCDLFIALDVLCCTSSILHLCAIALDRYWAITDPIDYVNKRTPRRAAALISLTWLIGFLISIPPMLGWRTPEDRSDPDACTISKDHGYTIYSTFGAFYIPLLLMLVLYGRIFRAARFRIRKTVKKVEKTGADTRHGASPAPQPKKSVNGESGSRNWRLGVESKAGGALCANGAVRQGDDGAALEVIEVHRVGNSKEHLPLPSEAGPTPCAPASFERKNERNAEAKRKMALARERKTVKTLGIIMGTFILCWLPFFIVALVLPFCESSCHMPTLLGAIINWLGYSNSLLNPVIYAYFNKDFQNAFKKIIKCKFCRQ

[3] = target: T2, 5-hydroxytryptamine receptor 6 (Homo sapiens, UniProt P50406); experiment: Binding affinity to 5-HT6R (unknown origin) assessed as inhibition constant
[4] = target: T3, Alpha-2C adrenergic receptor (Homo sapiens, UniProt P18825); experiment: Binding affinity to alpha2C AR (unknown origin) assessed as inhibition constant
T3 sequence (P18825 whole entry): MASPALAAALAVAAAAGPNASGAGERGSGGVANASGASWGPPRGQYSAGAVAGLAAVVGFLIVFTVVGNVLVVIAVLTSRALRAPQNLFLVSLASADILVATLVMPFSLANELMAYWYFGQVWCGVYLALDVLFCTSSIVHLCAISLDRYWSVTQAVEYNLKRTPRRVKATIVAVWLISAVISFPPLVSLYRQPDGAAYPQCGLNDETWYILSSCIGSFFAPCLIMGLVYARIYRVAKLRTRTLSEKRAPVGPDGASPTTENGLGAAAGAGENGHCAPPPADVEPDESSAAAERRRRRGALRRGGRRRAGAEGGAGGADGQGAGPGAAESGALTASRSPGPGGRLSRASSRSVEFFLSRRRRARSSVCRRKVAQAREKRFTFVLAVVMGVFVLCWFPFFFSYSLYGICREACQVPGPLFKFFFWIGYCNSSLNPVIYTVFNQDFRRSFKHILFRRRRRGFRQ

[5] = target: T2, 5-hydroxytryptamine receptor 6; experiment: Displacement of [125I]cAMP-tracer from 5-HT6R in human HeLa cells assessed as measuring cAMP level incubated for 15 mins by radioimmunoassay; assay type: cell-based

T2 sequence (P50406 whole entry): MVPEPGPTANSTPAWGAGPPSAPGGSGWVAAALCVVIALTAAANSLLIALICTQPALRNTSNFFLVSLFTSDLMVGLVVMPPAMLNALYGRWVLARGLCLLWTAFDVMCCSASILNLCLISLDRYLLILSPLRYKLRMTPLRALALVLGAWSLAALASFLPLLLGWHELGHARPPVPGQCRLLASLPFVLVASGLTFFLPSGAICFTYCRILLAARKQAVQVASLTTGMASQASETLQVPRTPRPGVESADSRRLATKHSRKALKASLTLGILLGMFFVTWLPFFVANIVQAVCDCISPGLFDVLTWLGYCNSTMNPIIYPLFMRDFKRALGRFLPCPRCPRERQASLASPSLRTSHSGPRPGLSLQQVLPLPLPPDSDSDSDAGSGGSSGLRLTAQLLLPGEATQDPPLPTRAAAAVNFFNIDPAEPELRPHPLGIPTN
Sequence of 5-hydroxytryptamine receptor 7 (P34969 whole entry): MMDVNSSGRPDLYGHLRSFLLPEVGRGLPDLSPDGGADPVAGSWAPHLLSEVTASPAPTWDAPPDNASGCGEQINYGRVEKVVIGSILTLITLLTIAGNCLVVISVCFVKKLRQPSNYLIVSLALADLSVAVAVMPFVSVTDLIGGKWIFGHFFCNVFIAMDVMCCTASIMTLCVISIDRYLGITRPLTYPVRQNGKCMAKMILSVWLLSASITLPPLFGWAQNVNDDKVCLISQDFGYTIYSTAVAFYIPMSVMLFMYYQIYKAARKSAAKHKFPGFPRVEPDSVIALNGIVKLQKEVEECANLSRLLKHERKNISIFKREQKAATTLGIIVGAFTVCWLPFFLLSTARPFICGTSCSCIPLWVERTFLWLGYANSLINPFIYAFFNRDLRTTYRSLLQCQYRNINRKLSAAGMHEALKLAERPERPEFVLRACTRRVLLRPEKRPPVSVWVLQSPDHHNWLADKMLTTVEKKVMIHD

Row | Structure (SMILES) | Ki [1] | Ki [2] | Ki [3] | also measured
1 | CCOCC(Oc1c(C)cccc1Cl)N1CCN(c2ccccc2OC)CC1 (stereo not given) | 34 nM | < 1 nM | 9.62 µM | –
2 | O=C1C2C3CCC(C3)C2C(=O)N1CC1CCCCC1CN1CCN(c2nsc3ccccc23)CC1 (stereo not given) | – | – | – | Ki [4]: 11 nM
3 | CCOCC(Oc1c(C)cccc1C)N1CCN(c2ccccc2OC)CC1 (stereo not given) | 156 nM | 41 nM | 9.97 µM | –
4 | COc1cc(NS(=O)(=O)c2ccc(OC)c(N3CCNCC3)c2)c(Cl)cc1Cl | – | – | – | Ki [5]: 0.98 nM
5 | Clc1ccc(-c2nn(Cc3ccccc3)c3c2CCNCC3)cc1 [JNJ-18038683 FREE BASE] | 3 nM | – | – | –
6 | CCN1CCCC1CNC(=O)c1cc(S(N)(=O)=O)ccc1OC (stereo not given) [SULPIRIDE] | > 3000 nM | – | – | –
